Measured values published in patent US20200024278A1, “COMPOSITION COMPRISING ANTIBIOTIC COMPOUND AND AN HETEROCYCLIC COMPOUND AND THEIR USE IN PREVENTING OR TREATING BACTERIAL INFECTIONS” (MUTABILIS, priority 2016, published 2020).
Where two headings read alike, the source gives them in different places.

Assays:
Experiment in all cases: MIC, broth microdilution (CLSI), substance alone or ATB combined with compound at 4 or 8 μg/mL
PAE 105250 = assay type: cell-based, P. aeruginosa; conditions: Pseudomonas aeruginosa, PAE 105250
Summary of the method: (§1)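 Antibiotic MICs were determined in presence of fixed compound at 4 or 8 μg/mL, and compound MICs alone, by visual growth inhibition. Inoculum 5·10^5 CFU/mL in ca-MHB, incubated 35 °C for 16-20 h per CLSI-M7-A7. Glucose-6-phosphate (25 μg/ml) added when fosfomycin was tested.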

PAE UFR90 = assay type: cell-based, P. aeruginosa; conditions: Pseudomonas aeruginosa, PAE UFR90
Summary of the method: as §1

PAE UFR48 = assay type: cell-based, P. aeruginosa; conditions: Pseudomonas aeruginosa, PAE UFR48
Summary of the method: as §1

SAU 29213 = assay type: cell-based, S. aureus; conditions: Staphylococcus aureus
Summary of the method: as §1

KPN UFR68 = assay type: cell-based, K. pneumoniae; conditions: Klebsiella pneumoniae, substance alone
Summary of the method: as §1

KPN 6299 = assay type: cell-based, K. pneumoniae; conditions: Klebsiella pneumoniae
Summary of the method: as §1

SPN 49619 = assay type: cell-based, S. pneumoniae; conditions: Streptococcus pneumoniae, SPN 49619
Summary of the method: as §1

ECL P99 = assay type: cell-based, E. cloacae; conditions: Enterobacter cloacae, ECL P99
Summary of the method: as §1

ECO 190317 = assay type: cell-based, E. coli; conditions: Escherichia coli, ECO 190317
Summary of the method: as §1

ECO UFR39 = assay type: cell-based, E. coli; conditions: Escherichia coli, ECO UFR39
Summary of the method: as §1

ABA UFR151 = assay type: cell-based, A. baumannii
Description: (§2) Compounds of the present invention were assessed against genotyped bacterial strains alone or in combination with an antibacterial. In the assays, MICs of said compounds or combination of antibiotics with fixed concentrations of said compounds (4 or 8 μg/mL) were determined by the broth microdilution method according to the Clinical Laboratory Standards Institute (CLSI-M7-A7). Briefly, compounds alone according to the invention were prepared in DMSO and spotted (2 μL each) on sterile polystyrene plates (Corning, 3788). Combinations of compounds and antibiotics dilutions were prepared in DMSO and spotted (1 μL each) on sterile polystyrene plates (Corning, 3788). Log phase bacterial suspensions were adjusted to a final density of 5·10^5 CFU/mL in cation-adjusted Mueller-Hinton broth (ca-MHB; Becton-Dickinson and Company) and added to each well (98 μL). Assays including Fosfomycin were supplemented with 25 μg/ml of Glucose-6-phosphate. Microplates were incubated for 16-20 h at 35° C. in ambient air. The MIC of the compounds was defined as the lowest concentration of said compounds that prevented bacterial growth as read by visual inspection. The MIC of ATB at each compound concentration was defined as the lowest concentration of ATB that prevented bacterial growth as read by visual inspection.

ABA 19606 = assay type: cell-based, A. baumannii
Description: as §2

ABA UFR160 = assay type: cell-based, A. baumannii; conditions: with Example 6 @8 μg/ml
Description: as §2

ABA UFR152 = assay type: cell-based, A. baumannii
Description: as §2

ABA UFR158 = assay type: cell-based, A. baumannii; conditions: with Example 6 @8 μg/ml
Description: as §2

ABA UFR156 = assay type: cell-based, A. baumannii
Description: as §2

ABA UFR154 = assay type: cell-based, A. baumannii
Description: as §2

ABA UFR155 = assay type: cell-based, A. baumannii
Description: as §2

ABA UFR153 = assay type: cell-based, A. baumannii
Description: as §2

ABA UFR157 = assay type: cell-based, A. baumannii
Description: as §2

[1] = antibiotic alone, read-out: MIC ATB alone
[2] = Acinetobacter baumannii, antibiotic alone, read-out: MIC ATB alone

C[C@@H](O)[C@H]1C(=O)N2C(C(=O)O)=C(S[C@@H]3CN[C@H](C(=O)N(C)C)C3)[C@H](C)[C@H]12 [MEM, Meropenem]
0.125 µg/mL: MIC (SAU 29213; MSSA) | MIC (SAU 29213; antibiotic alone, SAU 29213, read-out: MIC ATB alone)
<0.25 µg/mL: MIC ATB combined with Example 6 @8 μg/ml (ABA UFR160) | MIC ATB combined with Example 6 @8 μg/ml (ABA UFR158) | MIC ATB combined with Example 6 @8 μg/ml (ABA UFR153; with Example 6 @8 μg/ml)
16 µg/mL: MIC ATB combined with Example 6 @8 μg/ml (ABA UFR156; with Example 6 @8 μg/ml) | MIC ATB combined with Example 1 @8 μg/ml (ABA UFR155; with Example 1 @8 μg/ml) | MIC ATB combined with Example 6 @8 μg/ml (ABA UFR155; with Example 6 @8 μg/ml) | MIC ATB combined with Example 9 @4 μg/ml (ABA UFR155; with Example 9 @4 μg/ml) | MIC ATB combined with Example 11 @8 μg/ml (ABA UFR155; with Example 11 @8 μg/ml) | MIC ATB combined with Example 12 @8 μg/ml (ABA UFR155; with Example 12 @8 μg/ml)
0.031 µg/mL: MIC (ECO 190317; [1]) | MIC (ECO 190317; substance alone, read-out: MIC)
64 µg/mL: MIC (ECO UFR39; [1]) | MIC (ECO UFR39; substance alone, read-out: MIC) | MIC (ABA UFR156; [2]) | MIC ATB combined with Example 1 @8 μg/ml (ABA UFR156; with Example 1 @8 μg/ml) | MIC ATB combined with Example 9 @4 μg/ml (ABA UFR156; with Example 9 @4 μg/ml) | MIC ATB combined with Example 11 @8 μg/ml (ABA UFR156; with Example 11 @8 μg/ml) | MIC ATB combined with Example 15 @4 μg/ml (ABA UFR156; with Example 15 @4 μg/ml) | MIC ATB combined with Example 15 @4 μg/ml (ABA UFR155; with Example 15 @4 μg/ml)
1 µg/mL: MIC (KPN 6299; [1]) | MIC (KPN 6299; substance alone, read-out: MIC) | MIC (ABA 19606; [2]) | MIC ATB combined with Example 1 @8 μg/ml (ABA 19606; with Example 1 @8 μg/ml) | MIC ATB combined with Example 3 @8 μg/ml (ABA UFR152; with Example 3 @8 μg/ml) | MIC ATB combined with Example 9 @4 μg/ml (ABA UFR152; with Example 9 @4 μg/ml) | MIC ATB combined with Example 10 @8 μg/ml (ABA UFR152; with Example 10 @8 μg/ml) | MIC ATB combined with Example 11 @8 μg/ml (ABA UFR152; with Example 11 @8 μg/ml) | MIC ATB combined with Example 12 @8 μg/ml (ABA UFR152; with Example 12 @8 μg/ml) | MIC ATB combined with Example 15 @4 μg/ml (ABA UFR152; with Example 15 @4 μg/ml) | MIC (ABA UFR154; [2]) | MIC ATB combined with Example 11 @8 μg/ml (ABA UFR154; with Example 11 @8 μg/ml) | MIC (ABA UFR153; [2]) | MIC ATB combined with Example 1 @8 μg/ml (ABA UFR153; with Example 1 @8 μg/ml) | MIC ATB combined with Example 11 @8 μg/ml (ABA UFR153; with Example 11 @8 μg/ml) | MIC ATB combined with Example 1 @8 μg/ml (ABA UFR157; with Example 1 @8 μg/ml) | MIC ATB combined with Example 9 @4 μg/ml (ABA UFR157; with Example 9 @4 μg/ml)
0.5 µg/mL: MIC (ABA UFR151; [2]) | MIC ATB combined with Example 11 @8 μg/ml (ABA UFR151; with Example 11 @8 μg/ml) | MIC ATB combined with Example 15 @4 μg/ml (ABA UFR151; with Example 15 @4 μg/ml) | MIC ATB combined with Example 11 @8 μg/ml (ABA 19606; with Example 11 @8 μg/ml) | MIC ATB combined with Example 15 @4 μg/ml (ABA 19606; with Example 15 @4 μg/ml) | MIC ATB combined with Example 1 @8 μg/ml (ABA UFR154; with Example 1 @8 μg/ml) | MIC ATB combined with Example 6 @8 μg/ml (ABA UFR154; with Example 6 @8 μg/ml) | MIC ATB combined with Example 9 @4 μg/ml (ABA UFR154; with Example 9 @4 μg/ml) | MIC ATB combined with Example 15 @4 μg/ml (ABA UFR154; with Example 15 @4 μg/ml) | MIC ATB combined with Example 10 @8 μg/ml (ABA UFR157; with Example 10 @8 μg/ml) | MIC ATB combined with Example 11 @8 μg/ml (ABA UFR157; with Example 11 @8 μg/ml) | MIC ATB combined with Example 15 @4 μg/ml (ABA UFR157; with Example 15 @4 μg/ml)
2 µg/mL: MIC (PAE UFR90; [1]) | MIC (PAE UFR90; substance alone, read-out: MIC) | MIC ATB combined with Example 9 @4 μg/ml (ABA 19606; with Example 9 @4 μg/ml) | MIC (ABA UFR152; [2]) | MIC ATB combined with Example 6 @8 μg/ml (ABA UFR152; with Example 6 @8 μg/ml)
<=0.25 μg/mL: MIC ATB combined with Example 1 @8 μg/ml (ABA UFR151; with Example 1 @8 μg/ml) | MIC ATB combined with Example 3 @8 μg/ml (ABA UFR151; with Example 3 @8 μg/ml) | MIC ATB combined with Example 6 @8 μg/ml (ABA UFR151; with Example 6 @8 μg/ml) | MIC ATB combined with Example 9 @4 μg/ml (ABA UFR151; with Example 9 @4 μg/ml) | MIC ATB combined with Example 10 @8 μg/ml (ABA UFR151; with Example 10 @8 μg/ml) | MIC ATB combined with Example 12 @8 μg/ml (ABA UFR151; with Example 12 @8 μg/ml) | MIC ATB combined with Example 3 @8 μg/ml (ABA 19606; with Example 3 @8 μg/ml) | MIC ATB combined with Example 6 @8 μg/ml (ABA 19606; with Example 6 @8 μg/ml) | MIC ATB combined with Example 10 @8 μg/ml (ABA 19606; with Example 10 @8 μg/ml) | MIC ATB combined with Example 12 @8 μg/ml (ABA 19606; with Example 12 @8 μg/ml) | MIC ATB combined with Example 3 @8 μg/ml (ABA UFR154; with Example 3 @8 μg/ml) | MIC ATB combined with Example 10 @8 μg/ml (ABA UFR154; with Example 10 @8 μg/ml) | MIC ATB combined with Example 12 @8 μg/ml (ABA UFR154; with Example 12 @8 μg/ml) | MIC ATB combined with Example 3 @8 μg/ml (ABA UFR153; with Example 3 @8 μg/ml) | MIC ATB combined with Example 9 @4 μg/ml (ABA UFR153; with Example 9 @4 μg/ml) | MIC ATB combined with Example 10 @8 μg/ml (ABA UFR153; with Example 10 @8 μg/ml) | MIC ATB combined with Example 12 @8 μg/ml (ABA UFR153; with Example 12 @8 μg/ml) | MIC ATB combined with Example 15 @4 μg/ml (ABA UFR153; with Example 15 @4 μg/ml) | MIC ATB combined with Example 3 @8 μg/ml (ABA UFR157; with Example 3 @8 μg/ml) | MIC ATB combined with Example 6 @8 μg/ml (ABA UFR157; with Example 6 @8 μg/ml) | MIC ATB combined with Example 12 @8 μg/ml (ABA UFR157; with Example 12 @8 μg/ml)
32 µg/mL: MIC (KPN UFR68) | MIC ATB combined with Example 12 @8 μg/ml (ABA UFR156; with Example 12 @8 μg/ml) | MIC (ABA UFR155; [2]) | MIC (ABA UFR157; [2])
4 µg/mL: MIC (PAE 105250; [1]) | MIC (PAE 105250; substance alone, read-out: MIC) | MIC (PAE UFR48; [1]) | MIC (PAE UFR48; substance alone, read-out: MIC) | MIC ATB combined with Example 1 @8 μg/ml (ABA UFR152; with Example 1 @8 μg/ml)
0.063 µg/mL: MIC (SPN 49619; [1]) | MIC (SPN 49619; substance alone, read-out: MIC) | MIC (ECL P99; [1]) | MIC (ECL P99; substance alone, read-out: MIC)
8 µg/mL: MIC ATB combined with Example 3 @8 μg/ml (ABA UFR156; with Example 3 @8 μg/ml) | MIC ATB combined with Example 10 @8 μg/ml (ABA UFR156; with Example 10 @8 μg/ml) | MIC ATB combined with Example 3 @8 μg/ml (ABA UFR155; with Example 3 @8 μg/ml) | MIC ATB combined with Example 10 @8 μg/ml (ABA UFR155; with Example 10 @8 μg/ml)
